Tests used:
[1] = system: Human primary neutrophils; test: Trans-well migration assay (Example 3 method), unimodal fugetaxin test; format: cell-based; design: key to Unimodal fugetaxin hit, Neutrophils: A “+” in the Table indicates a positive hit as a unimodal fugetaxin, as that term is defined herein, for that particular cell type; conditions: for Unimodal fugetaxin hit, Neutrophils: human neutrophils, methods of Example 3
[2] = system: Human primary CD4+ lymphocytes; test: as above; format: cell-based; design: key: A “+” in the Table indicates a positive hit as a unimodal fugetaxin, as that term is defined herein, for that particular cell type; conditions: methods of Example 3
[3] = system: Eo-HL60 (HL-60 clone 15 differentiated to eosinophil-like phenotype); test: Trans-well migration assay (Example 1), net migratory response; format: cell-based, human; conditions: net observed response
Monocyte = test: as above; conditions: Monocyte; net observed response
Procedure: Prior to beginning the assay 0.5% Fetal Calf Serum (FCS) in Iscove's Modified Dulbecco's Medium (IMDM) is prepared and stored on ice (Assay Medium). Migratory cells at a concentration of 2×10^7 cells/ml are suspended in Assay Medium. T-cells isolated from donor blood or buffy coats are allowed to rest overnight in Assay Medium at 37° C. in 5% CO2. Neutrophils, monocytes and B cells are utilized as soon as they are purified from donor blood or other source of human origin. Four serial (10×) dilutions of the ligand are then prepared in Assay Medium (normally 10 μg/ml to 0.01 μg/ml).
Plates are removed from the packaging, leaving the membrane behind and intact. The membrane is set aside. Into each well is pipetted 31 μl of solution. For media controls and fugetaxis (chemorepellent) samples, Assay Medium is used. For chemoattraction samples, the appropriate dilution of agent in assay medium is used.
Using a sterile needle, all small bubbles present in each well are popped and the membrane is carefully placed onto the plate, starting at one side and slowly lowering the other edge onto the plate.
Then 29 μl is pipetted into each circle imprinted on the polycarbonate or polyester membrane. For media controls and chemoattraction samples, Assay Medium is used. For fugetaxis (chemorepellent) samples, the appropriate dilution of ligand in assay medium is used.
To each 29 uL aliquot above is added 2 μl of cells (40,000 cells). It is important to ensure that before beginning the cells are well suspended and that they are mixed. This mixing can be accomplished by agitating the tube between each addition.
The plate is then covered with the supplied lid and incubated 1-3 hours in a humidified incubator at 37° C. in 5% CO2. Following the incubation period, the liquid from the top of the plate is removed with a tissue or similar blotting material (e.g. a Kimwipe). The membrane is carefully removed from the top of the plate and discarded. […] Using a multichannel pipettor, each well of the microplate is rinsed with 25 μl Phosphate Buffered Saline (Mediatech #21-040-CV) and transferred to the same wells in the white microplate. Using a multichannel pipettor, 50 μl CellTiter-Glo Luminescent Cell Viability Assay (Promega #G7572) is added to each well and mixed.
The plate is read using the Perkin Elmer Victor^3V plate reader using the Large Aperture Luminescence setting at 8 mm height above the plate with a dwell time of 1 s to quantify the number of migrated cells.
The results reported reflect the net observed migratory response of the cells to the ligand and are not based on the definition of unimodal fugetaxins.

Neutrophils = test: High throughput transmigration assay (Example 9), chemorepulsion; format: cell-based, human; conditions: Neutrophils, mean of three donors at concentration of highest activity
B cells = test: as above; format: cell-based, human; design: key: ratio of chemorepulsion (CR) to spontaneous migration (SM), CR/SM
Excerpt: (§1) An agent's repellent index is the ratio of chemorepulsion (CR) to spontaneous migration (SM) induced by the agent, i.e., [(CR)/(SM)]. […] For example, in calculating a RI for an agent, migratory responses including chemorepulsion (CR) and spontaneous migration (SM) may be measured over several decades or log scales of concentration. If, over any two consecutive measurements at concentrations which differ by at least 10 fold, the ratio of CR to SM at each of the two contiguous measurements is equal to or greater than 1.2, then the agent is considered a validated chemorepellent.
(§2) For primary human T cells, up to 80 ml of blood is drawn from a human donor in sodium heparin Vacutainer tubes (Becton-Dickinson). The blood (between 10 and 15 ml per tube) is then layered onto 30 ml of Lymphocyte Separation Medium (LSM) (Cellgro, Herndon, Va.) in a 50 ml conical centrifuge tube and centrifuged for 20 minutes at 2440×g in a swinging bucket rotor. After removing the majority of the plasma from the top of each tube, the peripheral blood mononucleocyte (PBMC) layer is removed and transferred to fresh 50 ml conical centrifuge tubes. The tubes are then filled to 50 ml with IMDM and centrifuged for 10 minutes at 500×g. All but approximately 5 ml of the supernatant is then removed and the pellet resuspended with 25 ml IMDM and the centrifugation repeated. After removal of the supernatant, the cells are resuspended and combined to one 50 ml tube (per subject) and brought to a total volume of 50 ml. The cells are then counted using a hemacytometer (Reichert). After centrifugation under the same conditions, the supernatant is removed and the cells processed using the appropriate Miltenyi Biotec (Auburn, Calif.) negative selection kit to enrich for the desired cell type according to manufacturers instructions. The resulting purified cells are then diluted to 50 ml with IMDM. After centrifugation at 500×g for 10 minutes, the supernatant is removed and the cells resuspended in 15 ml IMDM supplemented with 0.5% heat inactivated fetal calf serum (FCS) (ATCC, Manassas, Va.). After another centrifugation for 10 minutes at 500×g, the supernatant is again removed and the cells resuspended in 7 ml 0.5% FCS in IMDM (assay medium) and transferred to a 15 ml conical centrifuge tube. The cells are then quantitated using a hemacytometer. When enriching for monocytes, the concentration of cells is adjusted to 2×10^7 per ml by centrifugation and removal of the appropriate volume of assay medium. For all other cell types, the tube cap is replaced with one from a 25 cm^2 tissue culture flask (Corning) and the cells stored overnight in a humidified 37° C. incubator with 5% CO2. The concentration of the cells is adjusted as for monocytes just prior to transmigration assay of Example 9.
(§3) Migration away from a chemical or biological agent (chemorepulsion (CR)) was measured using ChemoTx plates (Neuroprobe). These plates contain a planar polycarbonate or polyester membrane that has been etched and perforated so that cells can move along the etched tracks and fall through perforation holes, enabling the cells to be collected and the number of migrated cells quantified (FIGS. 5-6). Several dilutions (normally 4 in 10-fold increments) are prepared of the agent of interest. For neutrophils, plates with 3 μm pore membranes are used, while for all other primary cell types, 5 μm pore membranes are used. Membranes may, or may not, be coated with polyvinylpyrrolidine (PVP) as a wetting agent.
(§4) For spontaneous migration controls and chemorepulsion (CR) assays, 31 μl of assay medium is pipetted into the lower well of the transmigration apparatus (FIGS. 5-6). For spontaneous migration controls and chemoattraction (CA) assays, 29 μl of assay medium is pipetted into upper chamber of the transmigration apparatus (FIG. 5). For CR, the upper well assay medium contains the agent or candidate chemorepellent. […]

Monocytes = test: as above; format: cell-based, human; conditions: mean of three donors at concentration of highest activity, range 0.00125-1.25 μM
Excerpt: as §1, §2
It is noted that this procedure may be used to isolate and/or purify monocytes. In the monocyte purification method, a further step is included for platelet removal via the use of CD61 microbeads also purchased from Miltenyi Biotec (Auburn, Calif.).
as §3
For spontaneous migration controls and chemorepulsion (CR) assays, 31 μl of assay medium is pipetted into the lower well of the transmigration apparatus (FIGS. 5-6). […]

CD8+ = test: as above; format: cell-based, human; conditions: mean of three donors at concentration of highest activity
Excerpt: as §1, §2, §3, §4

[4] = mean of three donors at concentration of highest activity, range 0.00125-1.25 μM

Molecule: CC(C)Cn1cnc2c(N)nc3ccccc3c21 [Imiquimod, reference compound]
- Unimodal fugetaxin hit, Neutrophils [1]: +
- Unimodal fugetaxin hit, CD4+ [2]: +
- Migratory Response [3]: chemorepulsion
- Migratory Response (Monocyte): chemorepulsion

Molecule: HSP90: heat shock protein; accession NP_005339.2 and others
- Unimodal fugetaxin hit, Neutrophils [1]: +
- Unimodal fugetaxin hit, CD4+ [2]: +
- Repellent Index (Neutrophils; range 0.00125-1.25 μM): 1.7
- Migratory Response [3]: chemorepulsion

Molecule: CCL11: chemokine
- Repellent Index (B cells; [4]): 2.1

Molecule: CCL7: chemokine
- Repellent Index (Monocytes): 2.3

Molecule: CCL13: chemokine
- Repellent Index (Monocytes): 2.6

Molecule: CXCL1: chemokine
- Repellent Index (Neutrophils; range 0.00125-1.25 μM): 2.6
- Repellent Index (B cells; [4]): 1.3

Molecule: HSP27: heat shock protein; accession G01523/AAA62175
- Unimodal fugetaxin hit, Neutrophils [1]: +
- Repellent Index (Neutrophils; range 0.00125-1.25 μM): 4.4
- Migratory Response [3]: chemorepulsion
- Migratory Response (Monocyte): chemorepulsion

Molecule: IL8: interleukin-8
- chemotactic (chemoattractant) versus fugetactic (chemorepellent) response of neutrophils ([1]; neutrophils, 1 hour, FIGS. 3 and 4, at 10 uM where stated): over twice as chemotactic (chemoattractant) as fugetactic (chemorepellent)

Molecule: HSP60: heat shock protein
- Unimodal fugetaxin hit, Neutrophils [1]: +
- Unimodal fugetaxin hit, CD4+ [2]: +
- Migratory Response [3]: chemorepulsion

B1: Semaphorin 3F: semaphorin (protein, UniProt Q13275 19-785, looked up)
Semaphorin-3F: SFPTQDHLPATPRVRLSFKELKATGTAHFFNFLLNTTDYRILLKDEDHDRMYVGSKDYVLSLDLHDINREPLIIHWAASPQRIEECVLSGKDVNGECGNFVRLIQPWNRTHLYVCGTGAYNPMCTYVNRGRRAQATPWTQTQAVRGRGSRATDGALRPMPTAPRQDYIFYLEPERLESGKGKCPYDPKLDTASALINEELYAGVYIDFMGTDAAIFRTLGKQTAMRTDQYNSRWLNDPSFIHAELIPDSAERNDDKLYFFFRERSAEAPQSPAVYARIGRICLNDDGGHCCLVNKWSTFLKARLVCSVPGEDGIETHFDELQDVFVQQTQDVRNPVIYAVFTSSGSVFRGSAVCVYSMADIRMVFNGPFAHKEGPNYQWMPFSGKMPYPRPGTCPGGTFTPSMKSTKDYPDEVINFMRSHPLMYQAVYPLQRRPLVVRTGAPYRLTTIAVDQVDAADGRYEVLFLGTDRGTVQKVIVLPKDDQELEELMLEEVEVFKDPAPVKTMTISSKRQQLYVASAVGVTHLSLHRCQAYGAACADCCLARDPYCAWDGQACSRYTASSKRRSRRQDVRHGNPIRQCRGFNSNANKNAVESVQYGVAGSAAFLECQPRSPQATVKWLFQRDPGDRRREIRAEDRFLRTEQGLLLRALQLSDRGLYSCTATENNFKHVVTRVQLHVLGRDAVHAALFPPLSMSAPPPPGAGPPTPPYQELAQLLAQPEVGLIHQYCQGYWRHVPPSPREAPGAPRSPEPQDQKKPRNRRHHPPDT
- Repellent Index (Neutrophils; range 0.01-10 μM): 1.8
- Repellent Index (CD8+; range 0.01-10 μM): 1.3

B2: Galectin-2: carbohydrate binding protein (galectin), full-length, purchased; accession P05162 (protein, UniProt P05162 1-132, looked up)
chain: MTGELEVKNMDMKPGSTLKITGSIADGTDGFVINLGQGTDKLNLHFNPRFSESTIVCNSLDGSNWGQEQREDHLCFSPGSEVKFTVTFESDKFKVKLPDGHELTFPNRLGHSHLSYLSVRGGFNMSSFKLKE
modifications: full-length
- Migratory Response [3]: chemorepulsion
- Repellent Index (CD8+; range 0.00125-1.25 μM): 1.5

B3: HSP47 Human: heat shock protein; accession AAP35758 (protein, UniProt P50454 19-418, looked up)
Serpin H1: AEVKKPAAAAAPGTAEKLSPKAATLAERSAGLAFSLYQAMAKDQAVENILVSPVVVASSLGLVSLGGKATTASQAKAVLSAEQLRDEEVHAGLGELLRSLSNSTARNVTWKLGSRLYGPSSVSFADDFVRSSKQHYNCEHSKINFRDKRSALQSINEWAAQTTDGKLPEVTKDVERTDGALLVNAMFFKPHWDEKFHHKMVDNRGFMVTRSYTVGVMMMHRTGLYNYYDDEKEKLQIVEMPLAHKLSSLIILMPHHVEPLERLEKLLTKEQLKIWMGKMQKKAVAISLPKGVVEVTHDLQKHLAGLGLTEAIDKNKADLSRMSGKKDLYLASVFHATAFELDTDGNPFDQDIYGREELRSPKLFYADHPFIFLVRDTQSGSLLFIGRLVRPKGDKMRDEL
- Repellent Index (Neutrophils; range 0.00125-1.25 μM): 1.4
- Repellent Index (B cells; [4]): 1.5
- Migratory Response [3]: chemorepulsion
- Repellent Index (CD8+; range 0.00125-1.25 μM): 1.4

B4: Semaphorin 3A: semaphorin (protein, UniProt Q14563 21-771, looked up)
Semaphorin-3A: NYQNGKNNVPRLKLSYKEMLESNNVITFNGLANSSSYHTFLLDEERSRLYVGAKDHIFSFDLVNIKDFQKIVWPVSYTRRDECKWAGKDILKECANFIKVLKAYNQTHLYACGTGAFHPICTYIEIGHHPEDNIFKLENSHFENGRGKSPYDPKLLTASLLIDGELYSGTAADFMGRDFAIFRTLGHHHPIRTEQHDSRWLNDPKFISAHLISESDNPEDDKVYFFFRENAIDGEHSGKATHARIGQICKNDFGGHRSLVNKWTTFLKARLICSVPGPNGIDTHFDELQDVFLMNFKDPKNPVVYGVFTTSSNIFKGSAVCMYSMSDVRRVFLGPYAHRDGPNYQWVPYQGRVPYPRPGTCPSKTFGGFDSTKDLPDDVITFARSHPAMYNPVFPMNNRPIVIKTDVNYQFTQIVVDRVDAEDGQYDVMFIGTDVGTVLKVVSIPKETWYDLEEVLLEEMTVFREPTAISAMELSTKQQQLYIGSTAGVAQLPLHRCDIYGKACAECCLARDPYCAWDGSACSRYFPTAKRRTRRQDIRNGDPLTHCSDLHHDNHHGHSPEERIIYGVENSSTFLECSPKSQRALVYWQFQRRNEERKEEIRVDDHIIRTDQGLLLRSLQQKDSGNYLCHAVEHGFIQTLLKVTLEVIDTEHLEELLHKDDDGDGSKTKEMSNSMTPSQKVWYRDFMQLINHPNLNTMDEFCEQVWKRDRKQRRQRPGHTPGNSNKWKHLQENKKGRNRRTHEFERAPRSV
- Repellent Index (B cells; 0.00125 μM, one donor, triplicate, ± SD): 1.87 ± 0.40
- Repellent Index (B cells; 0.0125 μM, one donor, triplicate, ± SD): 2.07 ± 0.52
- Repellent Index (B cells; 0.125 μM, one donor, triplicate, ± SD): 2.39 ± 0.71
- Repellent Index (B cells; 1.25 μM, one donor, triplicate, ± SD): 2.16 ± 0.28
- Repellent Index (B cells; mean of three donors at concentration of highest activity, range 0.01-10 μM): 1.6
- Repellent Index (CD8+; range 0.01-10 μM): 1.3

B5: CCL27: chemokine (protein, UniProt Q9Y4X3 25-112, looked up)
C-C motif chemokine 27: FLLPPSTACCTQLYRKPLSDKLLRKVIQVELQEADGDCHLQAFVLHLAQRSICIHPQNPSLSQWFEHQERKLHGTLPKLNFGMLRKMG
- Repellent Index (B cells; [4]): 1.4

B6: HSP25: heat shock protein; accession AAA37862 (protein, UniProt P14602 1-209, looked up)
Heat shock protein beta-1: MTERRVPFSLLRSPSWEPFRDWYPAHSRLFDQAFGVPRLPDEWSQWFSAAGWPGYVRPLPAATAEGPAAVTLAAPAFSRALNRQLSSGVSEIRQTADRWRVSLDVNHFAPEELTVKTKEGVVEITGKHEERQDEHGYISRCFTRKYTLPPGVDPTLVSSSLSPEGTLTVEAPLPKAVTQSAEITIPVTFEARAQIGGPEAGKSEQSGAK
- Unimodal fugetaxin hit, Neutrophils [1]: +
- Repellent Index (Neutrophils; range 0.00125-1.25 μM): 11.9
- Repellent Index (CD8+; range 0.00125-1.25 μM): 1.3

Reference: US9617330B2, “Chemorepulsion of cells” (Celtaxsys, Inc., priority 2006, dated 2017)
